PMC8494682 (Applied Microbiology and Biotechnology, 2021)
Read-outs that look alike come from different tables or passages of the source.

Tests used:
[1] = target: T1, pantothenate kinase (PanK, Cab1) (Saccharomyces cerevisiae, UniProt Q04430); test: radiometric PanK assay with D-[[…]-14C]pantothenate, partially purified enzyme; format: biochemical
T1 construct: wild-type Cab1 expressed from pSBS5 in yeast strain JS91.14-24, partially purified on DEAE sepharose
T1 sequence (Q04430 1-367): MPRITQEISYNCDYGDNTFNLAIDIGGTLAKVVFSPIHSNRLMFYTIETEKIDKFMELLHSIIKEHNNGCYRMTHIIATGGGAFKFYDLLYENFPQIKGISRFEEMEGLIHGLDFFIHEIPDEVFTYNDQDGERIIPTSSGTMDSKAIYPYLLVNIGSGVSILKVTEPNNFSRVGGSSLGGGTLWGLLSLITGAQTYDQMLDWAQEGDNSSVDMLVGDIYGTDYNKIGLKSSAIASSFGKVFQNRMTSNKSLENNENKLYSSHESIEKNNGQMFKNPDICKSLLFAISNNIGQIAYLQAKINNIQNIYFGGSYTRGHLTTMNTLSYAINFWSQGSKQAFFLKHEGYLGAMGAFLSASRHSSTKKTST

[2] = target: T2, pantothenate kinase PanK3 (murine) (Mus musculus, UniProt Q8R2W9); test: as above; format: biochemical
T2 construct: murine wild-type PanK3 expressed from pJO73 in yeast strain JS91.14-24, partially purified on DEAE sepharose
T2 sequence (Q8R2W9 1-370): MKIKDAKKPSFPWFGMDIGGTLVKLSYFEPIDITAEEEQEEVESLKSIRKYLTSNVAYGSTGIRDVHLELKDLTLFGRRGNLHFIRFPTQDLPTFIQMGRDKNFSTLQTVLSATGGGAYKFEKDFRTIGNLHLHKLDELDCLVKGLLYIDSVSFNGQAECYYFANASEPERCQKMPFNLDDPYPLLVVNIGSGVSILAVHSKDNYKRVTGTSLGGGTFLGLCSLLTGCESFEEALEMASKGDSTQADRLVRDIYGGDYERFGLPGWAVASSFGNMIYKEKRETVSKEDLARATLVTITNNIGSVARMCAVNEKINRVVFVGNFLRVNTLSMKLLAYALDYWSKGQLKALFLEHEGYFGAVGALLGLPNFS

IC50 ([1]; read-out: IC50) [µM]	SMILES	IC50 [2] [µM]	IC50 [1] [µM]
283	CC(C)(COP(=O)(O)OP(=O)(O)OC[C@H]1O[C@@H](n2cnc3c(N)ncnc32)[C@H](O)[C@@H]1OP(=O)(O)O)[C@@H](O)C(=O)NCCC(=O)NCCS [Coenzyme A]	–	–
–	CC(=O)SCCNC(=O)CCNC(=O)[C@H](O)C(C)(C)COP(=O)(O)OP(=O)(O)OC[C@H]1O[C@@H](n2cnc3c(N)ncnc32)[C@H](O)[C@@H]1OP(=O)(O)O [acetyl-CoA]	1	36
–	CC(C)(COP(=O)(O)OP(=O)(O)OC[C@H]1O[C@@H](n2cnc3c(N)ncnc32)[C@H](O)[C@@H]1OP(=O)(O)O)[C@@H](O)C(=O)NCCC(=O)NCCSC(=O)CC(=O)O [malonyl-CoA]	–	812
891	CCCCCCCCCCCCCCCC(=O)SCCNC(=O)CCNC(=O)[C@H](O)C(C)(C)COP(=O)(O)OP(=O)(O)OC[C@H]1O[C@@H](n2cnc3c(N)ncnc32)[C@H](O)[C@@H]1OP(=O)(O)O [palmitoyl-CoA]	–	–
